Test results taken from the NIST ThermoML archive (doi:10.1016/j.fluid.2018.05.028).

Assay: xn = mol fraction of the nth substance listed
Details: 101 kPa, Liquid; for viscosity: Concentric cylinders viscometry; for speed of sound: Single path-length method; for mass density: Vibrating tube method

CCCCCCCCCCCCCCCC [hexadecane] + CCCO
Details | mass density [kg/m3] | speed of sound [m/s] | viscosity [mPa·s]
293.15 K, x2 = 0 | 773.35 | 1357.4 | 3.408
293.15 K, x2 = 0.1 | 773.48 | 1349.3 | 3.214
293.15 K, x2 = 0.2 | 774.05 | 1342.3 | 3.093
293.15 K, x2 = 0.3 | 774.88 | 1334.9 | 2.99
293.15 K, x2 = 0.4 | 776.01 | 1326.8 | 2.916
293.15 K, x2 = 0.5 | 777.51 | 1317.5 | 2.845
293.15 K, x2 = 0.6 | 779.56 | 1306.4 | 2.776
293.15 K, x2 = 0.7 | 782.34 | 1293.2 | 2.671
293.15 K, x2 = 0.8 | 786.35 | 1275.7 | 2.541
293.15 K, x2 = 0.9 | 792.43 | 1252.8 | 2.388
298.15 K, x2 = 0 | 769.87 | 1338.5 | 3.035
298.15 K, x2 = 0.1 | 769.92 | 1330.3 | 2.858
298.15 K, x2 = 0.2 | 770.46 | 1323.2 | 2.754
298.15 K, x2 = 0.3 | 771.25 | 1315.8 | 2.665
298.15 K, x2 = 0.4 | 772.34 | 1307.7 | 2.596
298.15 K, x2 = 0.5 | 773.81 | 1298.5 | 2.526
298.15 K, x2 = 0.6 | 775.81 | 1287.5 | 2.463
298.15 K, x2 = 0.7 | 778.55 | 1274.5 | 2.374
298.15 K, x2 = 0.8 | 782.5 | 1257.4 | 2.264
298.15 K, x2 = 0.9 | 788.52 | 1234.9 | 2.131
303.15 K, x2 = 0 | 766.4 | 1319.8 | 2.708
303.15 K, x2 = 0.1 | 766.38 | 1311.4 | 2.55
303.15 K, x2 = 0.2 | 766.87 | 1304.3 | 2.45
303.15 K, x2 = 0.3 | 767.62 | 1296.9 | 2.376
303.15 K, x2 = 0.4 | 768.67 | 1288.8 | 2.314
303.15 K, x2 = 0.5 | 770.09 | 1279.7 | 2.244
303.15 K, x2 = 0.6 | 772.04 | 1268.8 | 2.187
303.15 K, x2 = 0.7 | 774.73 | 1256 | 2.108
303.15 K, x2 = 0.8 | 778.64 | 1239.2 | 2.012
303.15 K, x2 = 0.9 | 784.59 | 1217.2 | 1.89
308.15 K, x2 = 0 | 762.95 | 1301.3 | 2.432
308.15 K, x2 = 0.1 | 762.83 | 1292.8 | 2.288
308.15 K, x2 = 0.2 | 763.27 | 1285.6 | 2.201
308.15 K, x2 = 0.3 | 763.98 | 1278.2 | 2.13
308.15 K, x2 = 0.4 | 764.98 | 1270.1 | 2.073
308.15 K, x2 = 0.5 | 766.36 | 1261 | 2.01
308.15 K, x2 = 0.6 | 768.26 | 1250.2 | 1.952
308.15 K, x2 = 0.7 | 770.89 | 1237.6 | 1.88
308.15 K, x2 = 0.8 | 774.74 | 1221.1 | 1.795
308.15 K, x2 = 0.9 | 780.63 | 1199.5 | 1.687
313.15 K, x2 = 0 | 759.49 | 1283.1 | 2.199
313.15 K, x2 = 0.1 | 759.29 | 1274.3 | 2.067
313.15 K, x2 = 0.2 | 759.67 | 1267.1 | 1.989
313.15 K, x2 = 0.3 | 760.33 | 1259.6 | 1.925
313.15 K, x2 = 0.4 | 761.29 | 1251.5 | 1.871
313.15 K, x2 = 0.5 | 762.61 | 1242.4 | 1.812
313.15 K, x2 = 0.6 | 764.45 | 1231.7 | 1.756
313.15 K, x2 = 0.7 | 767.03 | 1219.3 | 1.691
313.15 K, x2 = 0.8 | 770.82 | 1203.1 | 1.614
313.15 K, x2 = 0.9 | 776.63 | 1182 | 1.515
318.15 K, x2 = 0 | 756.05 | 1265 | 1.996
318.15 K, x2 = 0.1 | 755.74 | 1256 | 1.874
318.15 K, x2 = 0.2 | 756.07 | 1248.7 | 1.8
318.15 K, x2 = 0.3 | 756.67 | 1241.2 | 1.743
318.15 K, x2 = 0.4 | 757.58 | 1233 | 1.69
318.15 K, x2 = 0.5 | 758.84 | 1224 | 1.634
318.15 K, x2 = 0.6 | 760.62 | 1213.3 | 1.58
318.15 K, x2 = 0.7 | 763.14 | 1201.1 | 1.519
318.15 K, x2 = 0.8 | 766.85 | 1185.1 | 1.448
318.15 K, x2 = 0.9 | 772.59 | 1164.4 | 1.357
323.15 K, x2 = 0 | 752.61 | 1247.1 | 1.823
323.15 K, x2 = 0.1 | 752.19 | 1237.9 | 1.708
323.15 K, x2 = 0.2 | 752.45 | 1230.5 | 1.639
323.15 K, x2 = 0.3 | 753 | 1222.9 | 1.587
323.15 K, x2 = 0.4 | 753.84 | 1214.7 | 1.537
323.15 K, x2 = 0.5 | 755.05 | 1205.6 | 1.484
323.15 K, x2 = 0.6 | 756.76 | 1195.1 | 1.432
323.15 K, x2 = 0.7 | 759.22 | 1182.9 | 1.375
323.15 K, x2 = 0.8 | 762.85 | 1167.2 | 1.308
323.15 K, x2 = 0.9 | 768.51 | 1147 | 1.223
328.15 K, x2 = 0 | 749.18 | 1229.3 | 1.671
328.15 K, x2 = 0.1 | 748.64 | 1220 | 1.565
328.15 K, x2 = 0.2 | 748.83 | 1212.4 | 1.499
328.15 K, x2 = 0.3 | 749.32 | 1204.7 | 1.452
328.15 K, x2 = 0.4 | 750.09 | 1196.5 | 1.403
328.15 K, x2 = 0.5 | 751.23 | 1187.4 | 1.352
328.15 K, x2 = 0.6 | 752.86 | 1176.8 | 1.303
328.15 K, x2 = 0.7 | 755.25 | 1164.8 | 1.248
328.15 K, x2 = 0.8 | 758.8 | 1149.4 | 1.186
328.15 K, x2 = 0.9 | 764.37 | 1129.5 | 1.106
333.15 K, x2 = 0 | 745.74 | 1211.8 | 1.537
333.15 K, x2 = 0.1 | 745.09 | 1202.2 | 1.438
333.15 K, x2 = 0.2 | 745.2 | 1194.5 | 1.375
333.15 K, x2 = 0.3 | 745.61 | 1186.7 | 1.331
333.15 K, x2 = 0.4 | 746.31 | 1178.5 | 1.284
333.15 K, x2 = 0.5 | 747.38 | 1169.2 | 1.237
333.15 K, x2 = 0.6 | 748.93 | 1158.7 | 1.19
333.15 K, x2 = 0.7 | 751.24 | 1146.8 | 1.138
333.15 K, x2 = 0.8 | 754.7 | 1131.5 | 1.079
333.15 K, x2 = 0.9 | 760.17 | 1112.1 | 1.004
338.15 K, x2 = 0 | 742.31 | 1194.4 | 1.421
338.15 K, x2 = 0.1 | 741.53 | 1184.6 | 1.329
338.15 K, x2 = 0.2 | 741.55 | 1176.7 | 1.266
338.15 K, x2 = 0.3 | 741.89 | 1168.8 | 1.226
338.15 K, x2 = 0.4 | 742.52 | 1160.5 | 1.179
338.15 K, x2 = 0.5 | 743.5 | 1151.2 | 1.134
338.15 K, x2 = 0.6 | 744.97 | 1140.7 | 1.087
338.15 K, x2 = 0.7 | 747.19 | 1128.8 | 1.039
338.15 K, x2 = 0.8 | 750.55 | 1113.7 | 0.9835
338.15 K, x2 = 0.9 | 755.91 | 1094.6 | 0.9119
343.15 K, x2 = 0 | 738.88 | 1177.5 | 1.316
343.15 K, x2 = 0.1 | 737.98 | 1167.2 | 1.23
343.15 K, x2 = 0.2 | 737.89 | 1159.1 | 1.168
343.15 K, x2 = 0.3 | 738.15 | 1151.1 | 1.131
343.15 K, x2 = 0.4 | 738.69 | 1142.7 | 1.085
343.15 K, x2 = 0.5 | 739.59 | 1133.3 | 1.042
343.15 K, x2 = 0.6 | 740.96 | 1122.7 | 0.9894
343.15 K, x2 = 0.7 | 743.08 | 1110.9 | 0.9461
343.15 K, x2 = 0.8 | 746.33 | 1095.9 | 0.8985
343.15 K, x2 = 0.9 | 751.58 | 1077.1 | 0.8305
